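1) Cells in 96-well plates. 2) Compound, 48 h, 5 concentrations. 3) Linear interpolation between surrounding doses. 4) Unreached endpoint = highest concentration. TGI: concentration producing complete growth inhibition.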
Key:
Assay in all cases: growth of human tumour cells (NCI), 48 h
MALME-3M melanoma = tested on: MALME-3M melanoma
HL-60(TB) leukemia = tested on: HL-60(TB) leukemia
NCI-H460 lung = tested on: NCI-H460 lung
UACC-257 melanoma = tested on: UACC-257 melanoma
HCT-116 colon = tested on: HCT-116 colon
DLD-1 colon = tested on: DLD-1 colon
HCT-15 colon = tested on: HCT-15 colon
SK-MEL-2 melanoma = tested on: SK-MEL-2 melanoma
786-0 renal = tested on: 786-0 renal
HOP-62 NSCLC = tested on: HOP-62 NSCLC
KM20L2 colon = tested on: KM20L2 colon
HOP-18 NSCLC = tested on: HOP-18 NSCLC
DMS 273 small cell lung = tested on: DMS 273 small cell lung
SK-MEL-28 melanoma = tested on: SK-MEL-28 melanoma
HT29 colon = tested on: HT29 colon
RXF 393 renal = tested on: RXF 393 renal
OVCAR-4 ovarian = tested on: OVCAR-4 ovarian
M19-MEL melanoma = tested on: M19-MEL melanoma
DMS 114 small cell lung = tested on: DMS 114 small cell lung
NCI-H23 lung = tested on: NCI-H23 lung
K-562 leukemia = tested on: K-562 leukemia
UO-31 renal = tested on: UO-31 renal
HOP-92 NSCLC = tested on: HOP-92 NSCLC
TK-10 renal = tested on: TK-10 renal
A549 NSCLC = tested on: A549 NSCLC
SR leukemia = tested on: SR leukemia
OVCAR-8 ovarian = tested on: OVCAR-8 ovarian
LXFL 529 NSCLC = tested on: LXFL 529 NSCLC
U251 CNS = tested on: U251 CNS
LOX IMVI melanoma = tested on: LOX IMVI melanoma
OVCAR-3 ovarian = tested on: OVCAR-3 ovarian
EKVX NSCLC = tested on: EKVX NSCLC
SK-OV-3 ovarian = tested on: SK-OV-3 ovarian
RPMI-8226 leukemia = tested on: RPMI-8226 leukemia
XF 498 CNS = tested on: XF 498 CNS
CCRF-CEM leukemia = tested on: CCRF-CEM leukemia
SF-539 CNS = tested on: SF-539 CNS
NCI-H522 lung = tested on: NCI-H522 lung
SN12C renal = tested on: SN12C renal
HCC-2998 colon = tested on: HCC-2998 colon
SF-295 CNS = tested on: SF-295 CNS
COLO 205 colon = tested on: COLO 205 colon
SNB-78 CNS = tested on: SNB-78 CNS
SW-620 colon = tested on: SW-620 colon
SNB-19 CNS = tested on: SNB-19 CNS
SF-268 CNS = tested on: SF-268 CNS
OVCAR-5 ovarian = tested on: OVCAR-5 ovarian
NCI-H226 lung = tested on: NCI-H226 lung
MOLT-4 leukemia = tested on: MOLT-4 leukemia
IGROV1 ovarian = tested on: IGROV1 ovarian
M14 melanoma = tested on: M14 melanoma
ACHN renal = tested on: ACHN renal
A498 renal = tested on: A498 renal
UACC-62 melanoma = tested on: UACC-62 melanoma
KM12 colon = tested on: KM12 colon
RXF-631 renal = tested on: RXF-631 renal
SK-MEL-5 melanoma = tested on: SK-MEL-5 melanoma
SNB-75 CNS = tested on: SNB-75 CNS
CAKI-1 renal = tested on: CAKI-1 renal

For NC(=S)N1N=C2c3ccccc3CC[C@H]2[C@@H]1c1ccc(Cl)cc1, the TGI (MALME-3M melanoma) was 52.6 µM, the TGI (HL-60(TB) leukemia) was 61.6 µM and the TGI (NCI-H460 lung) was > 100 µM. For the same molecule, the TGI (UACC-257 melanoma) was 95 µM, the TGI (HCT-116 colon) was 37.3 µM and the TGI (DLD-1 colon) was > 100 µM. For the same molecule, the TGI (HCT-15 colon) was > 100 µM, the TGI (SK-MEL-2 melanoma) was 61.1 µM and the TGI (786-0 renal) was > 100 µM. For the same molecule, the TGI (HOP-62 NSCLC) was > 100 µM, the TGI (KM20L2 colon) was > 100 µM and the TGI (HOP-18 NSCLC) was > 100 µM. The TGI (DMS 273 small cell lung) was 73.3 µM, the TGI (SK-MEL-28 melanoma) was > 100 µM and the TGI (HT29 colon) was > 100 µM. For the same molecule, the TGI (RXF 393 renal) was 84.3 µM, the TGI (OVCAR-4 ovarian) was > 100 µM and the TGI (M19-MEL melanoma) was > 100 µM. For the same molecule, the TGI (DMS 114 small cell lung) was 70.6 µM, the TGI (NCI-H23 lung) was 97.7 µM and the TGI (K-562 leukemia) was 82.5 µM. The TGI (UO-31 renal) was 66.8 µM, the TGI (HOP-92 NSCLC) was 58.2 µM and the TGI (TK-10 renal) was > 100 µM. The TGI (A549 NSCLC) was > 100 µM, the TGI (SR leukemia) was > 100 µM and the TGI (OVCAR-8 ovarian) was > 100 µM. For the same molecule, the TGI (LXFL 529 NSCLC) was > 100 µM, the TGI (U251 CNS) was > 100 µM and the TGI (LOX IMVI melanoma) was > 100 µM. For the same molecule, the TGI (OVCAR-3 ovarian) was > 100 µM, the TGI (EKVX NSCLC) was > 100 µM and the TGI (SK-OV-3 ovarian) was > 100 µM. The TGI (RPMI-8226 leukemia) was > 100 µM, the TGI (XF 498 CNS) was 60.6 µM and the TGI (CCRF-CEM leukemia) was > 100 µM. For the same molecule, the TGI (SF-539 CNS) was > 100 µM, the TGI (NCI-H522 lung) was 35.4 µM and the TGI (SN12C renal) was > 100 µM. The TGI (HCC-2998 colon) was > 100 µM, the TGI (SF-295 CNS) was > 100 µM and the TGI (COLO 205 colon) was 34.8 µM. For the same molecule, the TGI (SNB-78 CNS) was > 100 µM, the TGI (SW-620 colon) was > 100 µM and the TGI (SNB-19 CNS) was > 100 µM. The TGI (SF-268 CNS) was > 100 µM, the TGI (OVCAR-5 ovarian) was > 100 µM and the TGI (NCI-H226 lung) was 51.5 µM. For the same molecule, the TGI (MOLT-4 leukemia) was 89.8 µM, the TGI (IGROV1 ovarian) was > 100 µM and the TGI (M14 melanoma) was > 100 µM. The TGI (ACHN renal) was > 100 µM, the TGI (A498 renal) was > 100 µM and the TGI (UACC-62 melanoma) was > 100 µM. The TGI (KM12 colon) was > 100 µM.

For Cc1c2c(c(C)c3c1[nH]c1ccccc13)CN(C)CC2, the TGI (MALME-3M melanoma) was 30.3 µM, the TGI (HL-60(TB) leukemia) was > 100 µM and the TGI (NCI-H460 lung) was 35.5 µM. The TGI (UACC-257 melanoma) was 31.4 µM, the TGI (HCT-116 colon) was 29.4 µM and the TGI (DLD-1 colon) was > 100 µM. For the same molecule, the TGI (HCT-15 colon) was 31 µM, the TGI (SK-MEL-2 melanoma) was 31.1 µM and the TGI (RXF-631 renal) was 89.7 µM. The TGI (786-0 renal) was 29.6 µM, the TGI (HOP-62 NSCLC) was > 100 µM and the TGI (KM20L2 colon) was 41.6 µM. The TGI (SK-MEL-5 melanoma) was 26.1 µM, the TGI (HOP-18 NSCLC) was > 100 µM and the TGI (DMS 273 small cell lung) was 34.3 µM. The TGI (SK-MEL-28 melanoma) was 36.2 µM, the TGI (HT29 colon) was 36.3 µM and the TGI (RXF 393 renal) was 34.6 µM. For the same molecule, the TGI (OVCAR-4 ovarian) was > 100 µM, the TGI (M19-MEL melanoma) was 30.7 µM and the TGI (DMS 114 small cell lung) was 28.5 µM. The TGI (NCI-H23 lung) was 56.3 µM, the TGI (K-562 leukemia) was > 100 µM and the TGI (SNB-75 CNS) was 28.8 µM. It also gave a TGI (CAKI-1 renal) of 27.4 µM, a TGI (UO-31 renal) of 53 µM and a TGI (HOP-92 NSCLC) of 57.5 µM. For the same molecule, the TGI (TK-10 renal) was 51.1 µM, the TGI (A549 NSCLC) was > 100 µM and the TGI (SR leukemia) was 87.8 µM. The TGI (OVCAR-8 ovarian) was 37.7 µM, the TGI (LXFL 529 NSCLC) was 28.2 µM and the TGI (U251 CNS) was 26 µM. The TGI (LOX IMVI melanoma) was 29.3 µM, the TGI (OVCAR-3 ovarian) was 52.7 µM and the TGI (SK-OV-3 ovarian) was 70.1 µM. For the same molecule, the TGI (RPMI-8226 leukemia) was 67 µM, the TGI (CCRF-CEM leukemia) was > 100 µM and the TGI (SF-539 CNS) was 27.6 µM. For the same molecule, the TGI (NCI-H522 lung) was 31.3 µM, the TGI (SN12C renal) was 76.6 µM and the TGI (HCC-2998 colon) was 31.2 µM. The TGI (SF-295 CNS) was 31.7 µM, the TGI (COLO 205 colon) was 28.6 µM and the TGI (SNB-78 CNS) was 55.9 µM. For the same molecule, the TGI (SW-620 colon) was 28.6 µM, the TGI (SNB-19 CNS) was > 100 µM and the TGI (SF-268 CNS) was 47.6 µM. The TGI (OVCAR-5 ovarian) was > 100 µM, the TGI (NCI-H226 lung) was 56.5 µM and the TGI (MOLT-4 leukemia) was > 100 µM. The TGI (IGROV1 ovarian) was > 100 µM, the TGI (M14 melanoma) was 28.4 µM and the TGI (ACHN renal) was 35.7 µM. For the same molecule, the TGI (A498 renal) was 59.4 µM, the TGI (UACC-62 melanoma) was 31.9 µM and the TGI (KM12 colon) was 33.9 µM.

Source: PubChem BioAssay (NCI)
